# Reference: the supplement of paper PMC7661543
# ± gives the standard deviation of the averaged measurements.
# What was measured:
# Assay in all cases: relative cell number vs DMSO control (72 h) (% of DMSO); higher = less growth inhibition (more cells)
# Settings in all cases: sgRNA knockout: sgNT
# HCC-38 = tested on: HCC-38
# Method: (§1)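 QMAP-Seq: a pool of 5 breast cancer cell lines (ZR-75-1, SKBR3, HCC-38, MDA-MB-231, BT-20), each carrying 12 doxycycline-inducible Cas9 sgRNA perturbations (11 knockouts plus non-targeting sgNT), was treated with compounds for 72 h at four 10-fold doses (10 nM-10 uM or 1 nM-1 uM range). Barcodes were amplified and sequenced, and cell number was interpolated from 293T spike-in standard curves. The result is expressed as % of the median of DMSO wells. Two biological replicates.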
# SKBR3 = tested on: SKBR3
# Method: as §1
# MDA-MB-231 = tested on: MDA-MB-231
# Method: as §1
# BT-20 = tested on: BT-20
# Method: as §1
# ZR-75-1 = tested on: ZR-75-1
# Method: as §1
Structure (SMILES),relative cell number (HCC-38; 10 nM),relative cell number (HCC-38; 100 nM),relative cell number (HCC-38; 1000 nM),relative cell number (HCC-38; 10000 nM),relative cell number (SKBR3; 10 nM),relative cell number (SKBR3; 100 nM),relative cell number (SKBR3; 1000 nM),relative cell number (SKBR3; 10000 nM),relative cell number (MDA-MB-231; 10 nM),relative cell number (MDA-MB-231; 100 nM),relative cell number (MDA-MB-231; 1000 nM),relative cell number (MDA-MB-231; 10000 nM),relative cell number (BT-20; 10 nM),relative cell number (BT-20; 100 nM),relative cell number (BT-20; 1000 nM),relative cell number (BT-20; 10000 nM),relative cell number (ZR-75-1; 10 nM),relative cell number (ZR-75-1; 100 nM),relative cell number (ZR-75-1; 1000 nM),relative cell number (ZR-75-1; 10000 nM),relative cell number (HCC-38; 1 nM),relative cell number (SKBR3; 1 nM),relative cell number (MDA-MB-231; 1 nM),relative cell number (BT-20; 1 nM),relative cell number (ZR-75-1; 1 nM)
CN(C)/N=N/c1[nH]cnc1C(N)=O [Dacarbazine],96.4 ± 9.5,85 ± 22,90.4 ± 13,96.1 ± 20,89.1 ± 21,91.8 ± 8.6,86.9 ± 3.4,106 ± 30,95 ± 23,132 ± 22,125 ± 38,69.2 ± 6.3,73.1 ± 11,96.3 ± 16,108 ± 13,88.5 ± 26,89.3 ± 32,87.7 ± 18,93.4 ± 33,94.9 ± 2.4,,,,,
Cc1nc(Nc2ncc(C(=O)Nc3c(C)cccc3Cl)s2)cc(N2CCN(CCO)CC2)n1 [Dasatinib],96.2 ± 12,66.2 ± 9.8,65.7 ± 4.4,32.9 ± 2.9,53.8 ± 31,96.7 ± 42,107 ± 28,41.6 ± 1.3,100 ± 5.3,53.1 ± 6.1,56 ± 14,13.8 ± 4.3,72.1 ± 28,82.2 ± 4.3,105 ± 1.7,63.9 ± 7.7,107 ± 27,75.8 ± 34,65.4 ± 11,35.9 ± 0.91,,,,,
Nc1ncn([C@H]2C[C@H](O)[C@@H](CO)O2)c(=O)n1 [Decitabine],98.2 ± 27,80.8 ± 14,49.3 ± 4.6,35.6 ± 3.4,104 ± 76,68.3 ± 37,55.4 ± 22,45.9 ± 16,83 ± 13,78.2 ± 10,31.2 ± 4.4,19.9 ± 0.36,92.6 ± 11,83 ± 5.8,75.7 ± 17,50.5 ± 15,119 ± 23,54.9 ± 30,51.2 ± 7.2,40.4 ± 17,,,,,
COC(=O)/C=C/C(=O)OC [DimethylFumarate],104 ± 17,81.6 ± 2.4,91.4 ± 7.1,91.3 ± 20,112 ± 23,98.3 ± 3,86.2 ± 8.6,78.2 ± 16,107 ± 36,88.3 ± 9.9,91.2 ± 7.2,98.8 ± 16,105 ± 18,98.2 ± 2.9,86.1 ± 15,84.8 ± 1.5,95.9 ± 36,120 ± 19,97.7 ± 76,81.2 ± 38,,,,,
COc1cccc2c1C(=O)c1c(O)c3c(c(O)c1C2=O)C[C@@](O)(C(=O)CO)C[C@@H]3O[C@H]1C[C@H](N)[C@H](O)[C@H](C)O1 [Doxorubicin],74 ± 5.4,38.3 ± 2.5,17.2 ± 3.1,10.8 ± 3.9,82.6 ± 29,34.4 ± 8.3,15 ± 6.8,6.86 ± 0.49,75.6 ± 18,19.3 ± 8.7,20.3 ± 0.47,7.68 ± 2.6,83 ± 11,46 ± 1.4,29.9 ± 5.7,16.4 ± 4.5,50 ± 9.8,31.7 ± 2.4,22.2 ± 16,10 ± 4.1,,,,,
Nc1ccccc1NC(=O)c1ccc(CNC(=O)OCc2cccnc2)cc1 [Entinostat],106 ± 1.9,105 ± 3.4,64.8 ± 13,36.8 ± 3.2,76.3 ± 10,102 ± 18,30.3 ± 5.2,5.86 ± 2,90.4 ± 17,115 ± 39,39.4 ± 5.7,12.5 ± 5.6,105 ± 2.6,103 ± 22,50.9 ± 7.8,19 ± 12,75.3 ± 4.2,103 ± 25,32.6 ± 24,36.1 ± 11,,,,,
CN1CCN(c2ccc(C(=O)Nc3n[nH]c4ccc(Cc5cc(F)cc(F)c5)cc34)c(NC3CCOCC3)c2)CC1 [Entrectinib],96.6 ± 2.2,89.3 ± 23,79.1 ± 6.5,,113 ± 3.7,82.9 ± 36,95 ± 19,,101 ± 9.8,93.3 ± 6.3,105 ± 6.8,,97.9 ± 13,91.6 ± 1.3,92.9 ± 5.6,,105 ± 44,73 ± 13,85.7 ± 8.3,,90.4 ± 11,113 ± 7.7,86.7 ± 26,102 ± 28,73.5 ± 22
CCOc1ccccc1-n1c(C(C)N2CCN(C(=O)COc3ccc(Cl)cc3)CC2)nc2ccccc2c1=O (stereo not given) [Erastin],97.1 ± 7.7,103 ± 9.8,99.2 ± 13,60.1 ± 4.2,111.3 ± 0.82,85.9 ± 42,118 ± 53,46 ± 11,90.4 ± 8.9,103 ± 30,87.6 ± 4.9,25.1 ± 4.8,122 ± 20,84.4 ± 8.1,99.8 ± 1.4,40 ± 1.6,99.6 ± 21,89.4 ± 42,81.3 ± 20,60.6 ± 13,,,,,
C#Cc1cccc(Nc2ncnc3cc(OCCOC)c(OCCOC)cc23)c1 [Erlotinib],105 ± 3,87.3 ± 9.9,99.1 ± 6.6,94.8 ± 1.3,124 ± 20,97.3 ± 14,79 ± 12,43.6 ± 8.1,98.8 ± 11,83.4 ± 2.6,98.4 ± 8.8,83.6 ± 2.8,103 ± 8.8,82.9 ± 2.6,81.9 ± 2,82.9 ± 8.9,99 ± 27,63.2 ± 3.8,97 ± 18,84.2 ± 26,,,,,
CCOC(=O)[C@@]1(CCCCCCOc2ccc(Cl)cc2)CO1 [Etomoxir],94.85 ± 0.42,94.52 ± 0.29,107 ± 19,86.4 ± 3.9,80.7 ± 22,98.3 ± 11,86.5 ± 40,98.3 ± 36,120 ± 25,109 ± 1.7,114 ± 30,92.8 ± 19,97.7 ± 1,90.3 ± 13,122 ± 23,107 ± 9.7,67.6 ± 37,90.7 ± 8.2,75.46 ± 0.14,57.2 ± 7.3,,,,,
COc1cc([C@@H]2c3cc4c(cc3[C@@H](O[C@@H]3O[C@@H]5CO[C@@H](C)O[C@H]5[C@H](O)[C@H]3O)[C@H]3COC(=O)[C@H]23)OCO4)cc(OC)c1O [Etoposide],75.4 ± 33,84.8 ± 13,31.6 ± 5.3,20.5 ± 1.8,58 ± 10,50.1 ± 4.5,31.3 ± 9.5,12.6 ± 12,81.6 ± 3.5,71.7 ± 1.1,21.8 ± 1.8,11.9 ± 1.1,87 ± 6.6,83 ± 1.2,52.6 ± 0.56,36 ± 15,56 ± 2.7,54.5 ± 4.6,46.8 ± 4.2,31.5 ± 1.5,,,,,
CO[C@H]1C[C@@H]2CC[C@@H](C)[C@@](O)(O2)C(=O)C(=O)N2CCCC[C@H]2C(=O)O[C@H]([C@H](C)C[C@@H]2CC[C@@H](OCCO)[C@H](OC)C2)CC(=O)[C@H](C)/C=C(\C)[C@@H](O)[C@@H](OC)C(=O)[C@H](C)C[C@H](C)/C=C/C=C/C=C/1C [Everolimus],59.2 ± 2.3,64.7 ± 2.1,59.7 ± 3.3,,67.6 ± 1.8,57.5 ± 21,70.7 ± 0.84,,50.9 ± 14,87.5 ± 11,88.3 ± 6.2,,63.7 ± 4.2,49.5 ± 6.8,71.5 ± 5.7,,66.8 ± 8.4,58 ± 11,42.7 ± 18,,56.5 ± 4.8,55.6 ± 18,76.3 ± 15,56 ± 3.1,69.7 ± 18
